PMC8402547, “In Vitro and In Vivo Analysis of Ochratoxin A-Derived Glucuronides and Mercapturic Acids as Biomarkers of Exposure” (Toxins, 2021)

Columns and labels:
[1] = Direct LC–MS/MS analysis of OTA metabolites in urine of OTA-treated rats; type: in vivo, male F344/N rats; settings: OTA up to 2 mg/kg bw, negative ionization mode
Experimental: Archived urine samples from previous repeated dose oral toxicity studies on OTA in male F344/N rats were used. The studies were performed according to national animal welfare regulations after authorization by the local authorities (Regierung von Unterfranken, AZ 621-2531.01-9/98 and AZ 54-2531.01-59/05).
14-day study: Male F344 rats (170–190 g) were purchased from Charles-River Laboratories, Sulzfeld, Germany. Animals had free access to water and standard diet (Altromin) and were kept under standard conditions (12 h day/night cycle, temperature 21–23 °C, humidity 45–55%). Rats were transferred to metabolic cages (Tecniplast Metabolic Cage—Rats Over 300 g; Tecniplast, Italy) for collection of urine 3 days prior to dosing. Animals were administered OTA dissolved in corn oil by oral gavage at 0, 0.25, 0.5, 1.0 and 2.0 mg/kg bw for 2 weeks (5 days per week). Urine was collected every 12 h on day 1 of treatment and every 24 h thereafter on ice, aliquoted and stored at −20 °C until further analysis.
90-day study: Male F344/N rats (6–7 weeks old) were purchased from Harlan-Winkelmann, Borchen, Germany. Animals were housed in groups of 5 in Macrolon type-4 cages and allowed free access to pelleted standard rat maintenance diet (SSNIFF, Soest, Germany) and tap water. After a week of acclimatization, rats (n = 5/dose) were exposed to OTA dissolved in corn oil by oral gavage at doses of 0, 21, 70 or 210 µg/kg bw for 2, 4 or 13 weeks (5 days per week). For urine collection, animals were transferred into metabolic cages (Tecniplast Metabolic Cage—Rats Over 300 g; Tecniplast, Italy) 48 h prior to necropsy and fasted for 20 h but allowed free access to tap water. Urine was collected for 24 h on ice, aliquoted and stored at −20 °C until further analysis.
Urine samples were diluted with acetonitrile (2:1), vortexed and cleared via centrifugation (4 °C, 15 min., 2000× g) to precipitate proteins. Of the resulting supernatant, 10 µL were injected into the LC–MS system and analyzed using the method described below.
(§1) LC–MS/MS analyses were performed on an Agilent 1100 series LC coupled to an API 2000/Q-Trap mass spectrometer (Applied Biosystems/MDS Sciex, Concord, Canada). Samples were injected into the LC–MS/MS system through an Agilent 1100 series autosampler. Separations were carried out on a ReproSil-Pur C18 AQ column (2 mm × 150 mm, 5 µm; Dr. Maisch; Ammerbuch, Germany). Gradient elution of OTA-derived metabolites was carried out with water + 0.1% formic acid (solvent A) and acetonitrile (solvent B). Initially, solvent A was held isocratic for 5 min at 100%, followed by a linear gradient to 95% B in 5 min. These conditions were held for further 5 min. Within 1 min, the gradient decreased linearly to 0% B and remained at initial conditions until the end of analysis (30 min). A flow rate of 0.2 mL/min was used. For each run, 10 µL of the respective sample were injected by the autosampler.
(§2) The API 2000/Q-Trap mass spectrometer was operated with a Turbo Ion Spray source in negative ion mode with a voltage of −4000 V. Spectral data were recorded with N2 as the heater gas at 450 °C and as the collision gas (CAD = −2) in multiple reaction monitoring mode (MRM).
(§3) In addition to MRM, constant neutral loss of 129 amu in the negative ion mode based on the characteristic fragmentation pattern of mercapturic acids was used to screen for N-acetyl-cysteine conjugates of OTA. Furthermore, constant neutral loss of 176 amu in positive ion mode based on the fragmentation pattern of glucuronic acid conjugates was used to screen for OTA glucuronides.

[2] = In vitro incubation of OTA with liver S9 in the presence of GSH or NAC; type: in vitro ADME, rat; settings: for Time-dependent formation from OTA: rat liver S9, with NADPH regenerating system, GSH or NAC 5 mM, t = 0, 60, 120 min; for Formation from OTA in the absence of the NADPH regenerating system: rat liver S9, no NADPH regenerating system
Experimental: (§4) Liver S9 fractions from rats (Sprague-Dawley, male, 97 donors, 20 mg/mL) and humans (mixed genders, 50 donors, 20 mg/mL) were obtained from XenoTech (Kansas City, USA). S9 fractions from Goettingen® minipigs and rabbits were prepared in-house based on a modified protocol from Hubbard et al. (1985). Rabbit liver (Blue Vienna x German Giant, female) was obtained from ImmonuGlobe (Himmelstadt, Germany), whereas minipig liver (Goettingen® minipig, male, 42.4 kg bw) was obtained from the University Goettingen, Department of Animal Science.
(§5) For analysis of OTA-derived GSH and NAC conjugates, liver S9 fractions (4 mg/mL) of rats, rabbits, minipigs and humans were incubated with OTA (0.1 mM), GSH or NAC (5 mM) and an NADPH regenerating system (NADP (5 mM), glucose-6-phosphate (5 mM), glucose-6-phosphate-dehydrogenase (1.25 units/mL)) in 100 mM phosphate-buffered saline (pH 7.4) in a total volume of 300 µL at 37 °C for two hours. Control incubations were carried out a) in the absence of GSH/NAC and b) in the absence of the NADPH regenerating system. Aliquots (100 µL) were removed immediately (t = 0) as well as after 60 (t = 60) and 120 (t = 120) minutes, and the enzymatic reaction was stopped by addition of 200 µL ACN and centrifugation (20 min, 4 °C, 20,000× g). The supernatants were removed and stored at −80 °C until further analysis.
as §1, §2, §3

[3] = as above; type: in vitro ADME, rabbit; settings: for Time-dependent formation from OTA: rabbit liver S9, with NADPH regenerating system, GSH or NAC 5 mM, t = 0, 60, 120 min; for Formation from OTA in the absence of the NADPH regenerating system: rabbit liver S9, no NADPH regenerating system
Experimental: as §4, §5, §1, §2, §3

[4] = as above; type: in vitro ADME, minipig; settings: for Time-dependent formation from OTA: minipig liver S9, with NADPH regenerating system, GSH or NAC 5 mM, t = 0, 60, 120 min; for Formation from OTA in the absence of the NADPH regenerating system: minipig liver S9, no NADPH regenerating system
Experimental: as §4, §5, §1, §2, §3

[5] = as above; type: in vitro ADME, human; settings: for Time-dependent formation from OTA: human liver S9, with NADPH regenerating system, GSH or NAC 5 mM, t = 0, 60, 120 min
Experimental: as §4, §5, §1, §2, §3

Compound | Detection in urine of OTA-treated rats by direct LC–MS/MS (MRM) [1] | Time-dependent formation from OTA [2] | Time-dependent formation from OTA [3] | Time-dependent formation from OTA [4] | Time-dependent formation from OTA [5] | Formation from OTA in the absence of the NADPH regenerating system [2] | Formation from OTA in the absence of the NADPH regenerating system [3] | Formation from OTA in the absence of the NADPH regenerating system [4] | Formation from OTA in the absence of the NADPH regenerating system ([5]; human liver S9, no NADPH regenerating system)
CC(=O)NC(CSc1cc(C(=O)N[C@@H](Cc2ccccc2)C(=O)O)c(O)c2c1C[C@@H](C)OC2=O)C(=O)O (stereo partly drawn) [OTB-NAC] | did not confirm the presence | not evident | not evident | not evident | not evident |  |  |  | 
C[C@@H]1Cc2c(Cl)cc(C(=O)O)c(O)c2C(=O)O1 [OTalpha] | consistently found |  |  |  |  |  |  |  | 
C[C@@H]1Cc2c(SC[C@H](NC(=O)CC[C@H](N)C(=O)O)C(=O)NCC(=O)O)cc(C(=O)N[C@@H](Cc3ccccc3)C(=O)O)c(O)c2C(=O)O1 [OTB-GSH] |  | not evident | not evident | not evident | not evident |  |  |  | 
CC(=O)NC(CSc1c(O)c2c(c(O)c1C(=O)N[C@@H](Cc1ccccc1)C(=O)O)C(=O)O[C@H](C)C2)C(=O)O (stereo partly drawn) [OTHQ-NAC] | not detected | not evident | not evident | not evident | not evident |  |  |  | 
C[C@H]1OC(=O)c2c(ccc(C(=O)N[C@@H](Cc3ccccc3)C(=O)O)c2O)[C@H]1O [4-hydroxy-OTB] |  | not observed | not observed | not observed | not observed |  |  |  | 
C[C@@H](O)Cc1c(Cl)cc(C(=O)N[C@@H](Cc2ccccc2)C(=O)O)c(O)c1C(=O)O [OP-OTA] | traces | observed |  | observed |  | not formed | not formed | not formed | not formed
C[C@@H]1Cc2ccc(C(=O)N[C@@H](Cc3ccccc3)C(=O)O)c(O)c2C(=O)O1 [OTB] |  | no time-dependent increase | no time-dependent increase | no time-dependent increase | no time-dependent increase |  |  |  | 
C[C@@H]1Cc2c(O)cc(C(=O)N[C@@H](Cc3ccccc3)C(=O)O)c(O)c2C(=O)O1 [OTHQ] | not detected | not observed | not observed | not observed | not observed |  |  |  | 
C[C@@H]1Cc2c(O)c(SC[C@H](NC(=O)CC[C@H](N)C(=O)O)C(=O)NCC(=O)O)c(C(=O)N[C@@H](Cc3ccccc3)C(=O)O)c(O)c2C(=O)O1 [OTHQ-GSH] |  | not evident | not evident | not evident | not evident | detected | detected | detected | 
